The values below come from ChEMBL document CHEMBL4673405, “Novel Linker Variants of Antileishmanial/Antitubercular 7-Substituted 2-Nitroimidazooxazines Offer Enhanced Solubility” (ACS Med Chem Lett, 2021).

The nature of series [1]: Half life in BALB/c mouse at 1 mg/kg, iv measured up to 24 hrs by LC-MS/MS analysis. The settings on record: in vivo.
The nature of series [2]: in vivo. Conditions: BALB/c, mouse, po, 25 mg/kg.
Series [3] has as its system Leishmania donovani. Put plainly: Antileishmanial activity against Leishmania donovani MHOM/ET/67/HU3 amastigotes infected in BALB/c mouse model of visceral leishmaniasis assessed as reduction in parasite burden in spleen at 50 mg/kg, po administered once daily for 5 consecutive days starting after 7 days post-infection by microscopic analysis relative to control. Format: functional. More on the design: scale not given: the % may be the effect or the level left. The settings on record: time 5 day.

In series [4] the test system is Leishmania infantum. Put plainly: Antileishmanial activity against Leishmania infantum MHOM/MA(BE)/67 amastigotes infected in mouse peritoneal macrophages incubated for 5 days by Giemsa staining based assay. Conditions: MHOM/MA(BE)/67, Peritoneal macrophage, 120 h. Format: functional, organism-based.
The nature of series [5]: AUClast in BALB/c mouse at 1 mg/kg, iv measured up to 24 hrs by LC-MS/MS analysis. Conditions: in vivo.
The subject of series [6] is Leishmania donovani. In words: Antileishmanial activity against Leishmania donovani MHOM/ET/67/HU3 amastigotes infected in BALB/c mouse model of visceral leishmaniasis assessed as reduction in parasite burden in liver at 25 mg/kg, po administered once daily for 5 consecutive days starting after 7 days post-infection by microscopic analysis relative to control. The series is classed as functional. More on the design: scale not given: the % may be the effect or the level left. The settings on record: time 5 day.

The test system of series [7] is Leishmania donovani. Put plainly: Antileishmanial activity against Leishmania donovani MHOM/ET/67/HU3 amastigotes infected in po dosed BALB/c mouse model of visceral leishmaniasis assessed as reduction in parasite burden in liver at administered once daily for 5 consecutive days starting after 7 days post-infection by microscopic analysis. The series is classed as functional. Conditions: MHOM/ET/67/HU3, po, 120 h, time 5 day.

Series [8] can be described thus: Volume of distribution at steady state in BALB/c mouse at 1 mg/kg, iv measured up to 24 hrs by LC-MS/MS analysis. The settings on record: in vivo.
A short description of series [9]: in vivo. The settings on record: BALB/c, mouse, po, 25 mg/kg. The source holds these as a separate data set.
Description: AUClast in BALB/c mouse at 25 mg/kg, po measured up to 24 hrs by LC-MS/MS analysis
The nature of series [10]: in vivo. The settings on record: BALB/c, mouse, po, 25 mg/kg. This is another data set of the same source.
The nature of series [11]: in vivo. Conditions: BALB/c, mouse, po, 25 mg/kg. The source holds these as a separate data set.
For series [12], the system named is Leishmania donovani. In words: Antileishmanial activity against Leishmania donovani MHOM/ET/67/HU3 amastigotes infected in BALB/c mouse model of visceral leishmaniasis assessed as reduction in parasite burden in liver at 50 mg/kg, po administered once daily for 5 consecutive days starting after 7 days post-infection by microscopic analysis relative to control. Format: functional. More on the design: scale not given: the % may be the effect or the level left. Conditions: time 5 day.

For series [13], the system named is Leishmania donovani. In words: Antileishmanial activity against Leishmania donovani MHOM/ET/67/HU3 amastigotes infected in BALB/c mouse model of visceral leishmaniasis assessed as reduction in parasite burden in liver at 12.5 mg/kg, po administered once daily for 5 consecutive days starting after 7 days post-infection by microscopic analysis relative to control. Conditions: time 5 day. More on the design: scale not given: the % may be the effect or the level left. The series is classed as functional.

Series [14] is described as follows: Half life in BALB/c mouse at 25 mg/kg, po measured up to 24 hrs by LC-MS/MS analysis. Format: ADME, organism-based. Conditions: in vivo.
Series [15] is described as follows: Initial plasma concentration in BALB/c mouse at 1 mg/kg, iv measured up to 24 hrs by LC-MS/MS analysis.
Series [16] concerns MRC5. In words: Cytotoxicity against human MRC5 cells assessed as reduction in cell viability measured after 72 hrs by resazurin assay. The series is classed as ADME, cell-based. The settings on record: MRC5, 72 h.
Series [17] is described as follows: Aqueous solubility of the compound at pH 7 sonicated for 15 mins by HPLC analysis. Conditions: aqueous medium.
A short description of series [18]: Clearance in BALB/c mouse at 1 mg/kg, iv measured up to 24 hrs by LC-MS/MS analysis. Conditions: in vivo.
The test system of series [19] is Leishmania donovani. In words: Antileishmanial activity against Leishmania donovani MHOM/ET/67/HU3 amastigotes infected in BALB/c mouse model of visceral leishmaniasis assessed as reduction in parasite burden in spleen at 25 mg/kg, po administered once daily for 5 consecutive days starting after 7 days post-infection by microscopic analysis relative to control. Format: functional. More on the design: scale not given: the % may be the effect or the level left. The settings on record: time 5 day.

Series [20] can be described thus: Solubility of the compound in 0.1 M HCl at pH 1 sonicated for 15 mins by HPLC analysis. Format: physicochemical.
For series [21], the system named is Leishmania donovani. In words: Antileishmanial activity against Leishmania donovani MHOM/ET/67/HU3 amastigotes infected in BALB/c mouse model of visceral leishmaniasis assessed as reduction in parasite burden in liver at 6.25 mg/kg, po administered once daily for 5 consecutive days starting after 7 days post-infection by microscopic analysis relative to control. Format: functional. More on the design: scale not given: the % may be the effect or the level left. Conditions: time 5 day.

Series [22] concerns Mycobacterium tuberculosis. Put plainly: Antitubercular activity against Mycobacterium tuberculosis H37Rv assessed as minimum inhibitory concentration required to inhibit 90% of bacterial growth incubated for 10 days under anerobic condition followed by incubation under ambient gaseous condition for 7 days by low oxygen recovery assay. The series is classed as functional. The settings on record: 408 h, time 17 day.

The subject of series [23] is Mycobacterium tuberculosis. Put plainly: Antitubercular activity against Mycobacterium tuberculosis H37Rv assessed as minimum inhibitory concentration required to inhibit 90% of bacterial growth incubated for 7 days under aerobic condition by microplate Alamar blue assay. The series is classed as functional. Conditions: 168 h, time 7 day.

pIC50: −log10 of the molar value. In brackets after ≈: the same amount, converted by molar mass.

Usually half-life stands for how long it takes for the measured level to halve. The Cmax is the maximum level reached in the sampled fluid or tissue. What is called pIC50 is the IC50 on a negative log10 scale, so that one unit is a factor of ten. By AUC(0-t) is commonly meant the area under the concentration-time curve up to a stated or last time point. One may read the ED50 as the dose that gives a 50% effect, or the effect in half of the subjects. The Vd is the apparent volume that relates the amount in the body to the concentration in plasma or blood. The term bioavailability denotes dose-corrected exposure relative to a reference, in per cent. As usually defined, the Tmax is the time at which the peak concentration occurs. A word on the solubility: it is how much of the substance goes into solution per volume. Usually clearance stands for the volume of plasma or blood freed of the substance per unit of time. Take `CC1(COC(=O)Nc2ccc(OC(F)(F)F)cc2)CCn2cc([N+](=O)[O-])nc2O1` (configuration not stated): in series [1], the half-life at 24 h is 1.3 h. Also, in series [2], the Cmax at 24 h was 13500 ng/mL. Besides, the Activity in [3] is 100%; in series [6] it was 97%; in [12], >99%; in [13], 7%; in [19], 96%. In addition, the pIC50 in series [4] was 6.44; in [16], ≤ 4.40. Moreover, the AUC(0-t) at 24 h in [5] turned out to be 2070 ng·h/mL; in series [9], 57800 ng·h/mL. Moreover, the 50% effective dose (ED50) in series [7] turned out to be 16 mg/kg. The Vd at 24 h in series [8] was 1.2 L/kg. Moreover, in [10], the bioavailability at 24 h came to 100%. For the same compound, the Tmax at 24 h in [11] was determined as 0.75 h. In addition, the half-life in series [14] was 1.7 h. Moreover, the C0 at 24 h in series [15] was determined as 800 ng/mL. Also, in [17], the concentration in solution (solubility at 0.25 h) came to 11 µg/mL (≈ 26.4 µM). Moreover, the clearance at 24 h in series [18] was found to be 8.5 mL/min/kg.
Consider `CC1(CNc2ccc(OC(F)(F)F)cc2)CCn2cc([N+](=O)[O-])nc2O1` (configuration not stated), for which the negative-log IC50 (pIC50) is 6.74 in series [4] and ≤ 4.40 in series [16]. For the same compound, the Activity is given as >99% in [12] and 29% in series [21]. Also, the solubility at 0.25 h in [20] was 10 µg/mL (≈ 26.9 µM); in series [17], 3 µg/mL (≈ 8.06 µM).
Broadly, the MIC90 is an inhibitory concentration at the 90% level, which refers to growth in some studies and to a panel of isolates in others. As to `C[C@]1(COC(=O)Nc2ccc(OC(F)(F)F)cc2)CCn2cc([N+](=O)[O-])nc2O1`, the MIC90 in series [22] amounted to 1 µM (≈ 0.416 µg/mL); in [23] it was 0.085 µM (≈ 0.0354 µg/mL). The results for the negative logarithm of the IC50 (pIC50) in series [4] and in [16] were 6.85 and ≤ 4.40, respectively. Moreover, the Activity in series [6] is given as 89%; in series [13], 40%. The concentration in solution in [17] (solubility at 0.25 h) was 6.3 µg/mL (≈ 15.1 µM).
